Where two headings read alike, the source gives them in different places.
Columns and labels:
[1] = tested on: guinea pig ileum; experiment: antispasmodic activity against contractions of guinea pig ileum induced by histamine and acetylcholine; settings: Cavia porcellus
Experimental: The antispasmodic activity of the products according to the invention was tested against contractions of guinea pig ileum, such as induced by histamine and acetylcholine. These tests allow to reveal an antihistaminic activity, an anticholinergic activity or a musculotropic antispasmodic activity. The response to the contracting agent (submaximum concentration)was repeated every 5 minutes before and after injection of increasing doses of the tested products (10^-8 to 10^-5 M). The various doses were added at intervals of 20 minutes or of the time necessary to the development of the maximum effect.
The percentage of inhibition under the influence of tested products was calculated and the theoretical concentration ensuring 50% inhibition was graphically determined for each experience. These values were expressed as -log IC50 (M). The standard value for papaverine was 4.50, namely an effective concentration of 30 μM.

[2] = tested on: femoral arterial circulation; experiment: peripheral vasodilator activity on anaesthetized dog, femoral arterial perfusion pressure; type: in vivo; settings: 30 μg/kg injected in femoral perfusion (some also at other doses); in words
Experimental: The peripheral vasodilator activity of the products according to the invention was measured on anaesthetized dog at the level of the femoral arterial circulation. To this end, the femoral artery the collaterals of which were ligaturated was perfused with a constant flow rate of blood taken from aorta. Thus the perfusion pressure measured at the level of the femoral artery, varied as a function of the resistance of perfused area. The tested products and the corresponding solvents were directly injected in the system at the dose of 30 μg/kg. The blood circulation rate being maintained constant, a vasodilation was thus measured by a decrease of the perfusion pressure. The latter is rated in comparison with the action of papaverine considered as standard and injected once per group of 4 products.
When being of interest, the products were tested at other doses under the same conditions. The vasodilation activity was rated as follows:
+: 1/3 of the papaverine activity
++: 2/3 of the papaverine activity
+++: activity equal to that of papaverine (i.e. 30 to 40 mm Hg)
++++: activity higher than that of papaverine.

[3] = tested on: spontaneously hypertensive rats; experiment: antihypertensive activity, oral administration to non-anesthetized spontaneously hypertensive rats, systolic arterial pressure (plethysmographic); type: in vivo, rat; settings: for antihypertensive activity: 60 mgr/kg oral (some also at other doses), in words; for antihypertensive effect (rating): oral
Experimental: Their antihypertensive activity was tested by oral administration to non-anesthetized, spontaneously hypertensive rats, on which the systolic arterial pressure is measured at the level of the median coccygeal artery by means of a plethysmographic method (J. Roba, G. Lambelin, A. F. De Schaepdryver, Arch. int. Pharmacodyn., 200, 182, 1972). The arterial pressure was measured every 30 minutes from two hours before to three hours after oral administration of 60 mgr/kg of the tested products or of a placebo (1% tragacanth gum mucilage). When being of interest, the products were tested at other doses under similar conditions. Only rats having a systolic pressure of 180 to 220 mm Hg were used. Two rats were used for each product. The treatments were made without the knowledge of the person making the measures. The antihypertensive effects were rated as follows:
+: reduction of 10 to 20 mm Hg
++: reduction of 20 to 30 mm Hg
+++: reduction of 30 to 50 mm Hg
++++: reduction >50 mm Hg

[4] = 50% inhibition of contractions, converted from -log IC50, read-out: effective concentration / concentration corresponding to -log IC50 (converted)
[5] = contractions induced by histamine and acetylcholine, 10^-8 to 10^-5 M, read-out: -log IC50 (M), antispasmodic activity (converted)
[6] = read-out: -log IC50 (M), antispasmodic activity (converted)
[7] = read-out: effective concentration / concentration corresponding to -log IC50 (converted)

Structure (SMILES)	IC50 [1, 4] [M]	IC50 [1, 5] [M]	peripheral vasodilator activity (compared with papaverine) [2]	antihypertensive activity [3]	further results
CCCCCCCCN[C@@H](C)[C@@H](OC(=O)C1CCCCC1)c1ccc(SC(C)C)cc1 (relative stereo) [Compound 29]	< 1e-06	< 1e-06			
CCCCCCCCNC(C)C(OC(=O)CC)c1ccc(SC(C)C)cc1 (stereo not shown) [Compound 2]	< 1e-06	< 1e-06			
CCCCCCCCNC(C)C(OC(=O)C(C)C)c1ccc(SC(C)C)cc1 (stereo not shown) [Compound 4]	< 1e-06	< 1e-06	at least equal to that of papaverine		
CCCCCCCCNC(C)C(OC(=O)CCC)c1ccc(SC(C)C)cc1.Cl (stereo not shown) [Compound 6, 1-Butyryloxy-1-(4-isopropylthiophenyl)-2-n-octylaminopropane hydrochloride]	< 1e-06	< 1e-06	at least equal to that of papaverine		
CCCCCCCCNC(C)C(OC(=O)C1CCCCC1)c1ccc(SC(C)C)cc1 (stereo not shown) [Compound 7]				suitable antihypertensive activity	
CCCCCCCCNC(C)C(OC(=O)C1CCCC1)c1ccc(SC(C)C)cc1 (stereo not shown) [Compound 8]				suitable antihypertensive activity	
CCCCCCCCNC(C)C(OC(=O)C1CCC1)c1ccc(SC(C)C)cc1 (stereo not shown) [Compound 9]	< 1e-06	< 1e-06	at least equal to that of papaverine		
CC(C)Sc1ccc(C(OC(=O)C2CCC2)C(C)NCCCCc2ccccc2)cc1 (stereo not shown) [Compound 10]	< 1e-06	< 1e-06		suitable antihypertensive activity	
CCCCCCCCNC(C)C(OC(=O)CC)c1ccc(SC2CCCCC2)cc1 (stereo not shown) [Compound 11]	< 1e-06	< 1e-06			
CCCCCCCCNC(C)C(OC(C)=O)c1ccc(SC2CCCC2)cc1 (stereo not shown) [Compound 15]			at least equal to that of papaverine		IC50 [1, 6]: < 1e-06 M; IC50 [1, 7]: < 1e-06 M
CCCCCCCCNC(C)C(OC(C)=O)c1ccc(OC(C)C)cc1 (stereo not shown) [Compound 18, 1-acetyloxy-1-(4-isopropyloxyphenyl)-2-n.octylaminopropane]			at least equal to that of papaverine	suitable antihypertensive activity	IC50 [1, 6]: < 1e-06 M; IC50 [1, 7]: < 1e-06 M
CCCCCCCCNC(C)C(OC(=O)C(C)C)c1ccc(OCCCC)cc1 (stereo not shown) [Compound 19, 1-(p-n-Butyloxyphenyl)-1-sec-butyryloxy-2-n-octylaminopropane]				suitable antihypertensive activity	
CC(C)Oc1ccc(C(OC(=O)C2CCCCC2)C(C)NCCCCc2ccccc2)cc1 (stereo not shown) [Compound 20]	< 1e-06	< 1e-06	at least equal to that of papaverine	suitable antihypertensive activity	
CC(C)Sc1ccc(C(OC(=O)C(C)C)C(C)NCCOc2ccccc2)cc1 (stereo not shown) [Compound 22]	< 1e-06	< 1e-06			
CCCC(=O)OC(c1ccc(SC(C)C)cc1)C(C)NCCCCc1ccccc1 (stereo not shown) [Compound 23]	< 1e-06	< 1e-06	at least equal to that of papaverine		
CCCC(=O)OC(c1ccc(SC(C)C)cc1)C(C)NCCOc1ccccc1 (stereo not shown) [Compound 24]	< 1e-06	< 1e-06		suitable antihypertensive activity	
CC(=O)OC(c1ccc(SC(C)C)cc1)C(C)NCCOc1ccccc1 (stereo not shown) [Compound 25]				suitable antihypertensive activity	
CC(C)Sc1ccc(C(OC(=O)C(C)C)C(C)NCCCCc2ccccc2)cc1 (stereo not shown) [Compound 26]	< 1e-06	< 1e-06	at least equal to that of papaverine		
CC(=O)OC(c1ccc(SC(C)C)cc1)C(C)NCCCCc1ccccc1 (stereo not shown) [Compound 27]			at least equal to that of papaverine	suitable antihypertensive activity	IC50 [1, 6]: < 1e-06 M; IC50 [1, 7]: < 1e-06 M

Structure (SMILES)	IC50 [1, 4] [M]	IC50 [1, 5] [M]	peripheral vasodilator activity (compared with papaverine) [2]	antihypertensive activity [3]	further results
CCCCCCCCNC(C)C(OC(=O)C1CC1)c1ccc(SC(C)C)cc1 (stereo not shown) [Compound 28]	< 1e-06	< 1e-06			
CCCCCCCCNC(C)C(OC(=O)CCCCC(=O)OC)c1ccc(SC(C)C)cc1 (stereo not shown) [Compound 31]	< 1e-06	< 1e-06			
CCCCCCCCNC(C)C(OC(=O)CCc1ccccc1)c1ccc(SC(C)C)cc1 (stereo not shown) [Compound 32]	< 1e-06	< 1e-06			
CCCCCCCCNC(C)C(OC(=O)Cc1ccccc1)c1ccc(SC(C)C)cc1 (stereo not shown) [Compound 34]				suitable antihypertensive activity	
CCCCCCCCNC(C)C(OC(=O)Cc1ccc(OC)cc1)c1ccc(SC(C)C)cc1 (stereo not shown) [Compound 35]				suitable antihypertensive activity	
CCCCCCCCNC(C)C(OC(=O)CC1CCCCC1)c1ccc(SC(C)C)cc1 (stereo not shown) [Compound 37]				suitable antihypertensive activity	
CC(=O)OC(c1ccc(SC(C)C)cc1)C(C)NCCCC(=O)c1ccc(F)cc1 (stereo not shown) [Compound 43]				suitable antihypertensive activity	
CCCCCCCCNC(C)C(O)c1ccc(OCC(C)C)cc1 (stereo not shown) [Compound 78]			at least equal to that of papaverine		IC50 [1, 6]: < 1e-06 M; IC50 [1, 7]: < 1e-06 M
CCCCCCNC(C)C(O)c1ccc(OCC(C)C)cc1 (stereo not shown) [Compound 79]			at least equal to that of papaverine		
CCCCCCCCNC(C)C(O)c1ccc(C(C)C)cc1 (stereo not shown) [Compound 81, 1-(4-isopropylphenyl)-2-n-octylamino-1-propanol]			at least equal to that of papaverine		IC50 [1, 6]: < 1e-06 M; IC50 [1, 7]: < 1e-06 M
CCCCCCCCCCCCNC(C)C(O)c1ccc(C(C)C)cc1 (stereo not shown) [Compound 82]			at least equal to that of papaverine		
CCCCCCNC(C)C(O)c1ccccc1 (stereo not shown) [Compound 83]			at least equal to that of papaverine		IC50 [1, 6]: < 1e-06 M; IC50 [1, 7]: < 1e-06 M
CCCCCCCCNC(C)C(O)c1ccc(Cl)cc1 (stereo not shown) [Compound 85]			at least equal to that of papaverine		IC50 [1, 6]: < 1e-06 M; IC50 [1, 7]: < 1e-06 M
CCCCCCCCCCCCNC(C)C(O)c1ccc(OC)cc1 (stereo not shown) [Compound 88]					IC50 [1, 6]: < 1e-06 M; IC50 [1, 7]: < 1e-06 M
CCCCCCCCNC(C)C(O)c1ccc(OCCCC)cc1 (stereo not shown) [Compound 91, 1-(4-butoxyphenyl)-2-n-octylamino-1-propanol]			at least equal to that of papaverine		IC50 [1, 6]: < 1e-06 M; IC50 [1, 7]: < 1e-06 M
CC(C)Oc1ccc(C(O)C(C)NCCCCc2ccccc2)cc1 (stereo not shown) [Compound 94, 1-(4-Isopropoxyphenyl)-2-(4-phenylbutylamino)-1-propanol]				suitable antihypertensive activity	
COc1ccc(Cc2nccc3cc(OC)c(OC)cc23)cc1OC [papaverine, reference compound]					IC50 [1, 6]: 3.16e-05 M; IC50 [1, 7]: 3e-05 M
COC(=O)[C@H]1[C@H]2C[C@@H]3c4[nH]c5cc(OC)ccc5c4CCN3C[C@H]2C[C@@H](OC(=O)c2cc(OC)c(OC)c(OC)c2)[C@@H]1OC [reserpine, reference compound]					antihypertensive effect (rating) ([3]; 3 mgr/kg): +++ (reduction of 30 to 50 mm Hg)
CC(N)(Cc1ccc(O)c(O)c1)C(=O)O (stereo not drawn) [α-methyldopa, reference compound]					antihypertensive effect (rating) ([3]; 100 mgr/kg): +++ (reduction of 30 to 50 mm Hg)

From patent US4474977A, “Amino-alcohol derivatives” (Continental Pharma S.A., priority 1977, dated 1984)
